Measurements taken from patent US6403647B1, “Pulsed administration of compositions for the treatment of blood disorders” (priority 1996, dated 2002).
Entries after “also recorded” stand apart in the source; their conditions may differ.

Assays:
Bfu-e = assay: Erythroid colony (Bfu-e) proliferation with maximal growth factors, normal subject; type: cell-based, human; conditions: 0.1 mM
Excerpt: Erythroid cells were obtained, as described in Example 1, from a normal subject and cultured on semi-solid medium in the presence of a maximal amount of erythroid growth factors including IL-6, GM-CSF, SCF and EPO. Erythroid proliferation in the presence of these factors is expected to be maximal and, therefore, any increases observed would be significant.

[1] = Conventional versus pulse treatment of a sickle cell patient; type: in vivo, human
Method: Conventional treatment: A patient with sickle cell disease was tested with arginine butyrate at 750 mg/kg. Drug was administered by infusion for 10-16 hours per day and 5 days/week. […] After 150 days, total HbF declined to about 10%.
Pulse treatment: Treatment of the same sickle cell patient as above was changed from weekly to pulse administration of arginine butyrate about one year later (FIG. 5B). Arginine butyrate was administered by infusion at 500 to 750 mg/kg for 4 days for about 10-16 hours per day. After the 4 day regimen, drug was withheld for 10 days before treatment was repeated. This regimen was continued for about 5 months and percent total fetal hemoglobin increased to over 20%. This level was maintained until treatment was discontinued. Hemoglobin F levels above 20% are generally considered to be sufficient to eliminate symptoms associated with sickle cell disease.

[2] = Weekly versus pulse butyrate therapy in sickle cell and beta thalassemia patients; type: in vivo, human; set-up: F-retics On / F-cells On: unit not given here
Method: To determine if arginine butyrate can be used for therapeutic benefit, two low-dose regimens of butyrate were studied. Treatment were given intermittently either weekly, or in a pulse fashion, at 2-3 week intervals. […]
Patients were treated by pulse therapy for 4-18 months with arginine butyrate. […] It is preferred to avoid prolonged treatment with high doses of butyrate, which cause cellular growth arrest in G1, and can enhance the accelerated apoptosis of beta thalassemia. Partial tolerance observed with long-term weekly therapy appears related to erythroid cell growth arrest and a decline in EPO levels as Hgb and Hct rise and depletion of available iron stores. Treatment with additional doses of iron supplements can overcome some of the anti-proliferative activities of butyrate in vitro. Time required on therapy has been only 25%-35% of the treatment days per month necessary for effective transfusion and iron chelation. This has improved the quality of life of some patients.
To determine if these potentially opposing actions can be balanced for therapeutic effect, two intermittent schedules of butyrate were compared in 21 treatment courses in 14 patients ages 3 to 55 years, with sickle cell disease or β thalassemia. An optimal dose was identified on an individual patient regimen and continued on a weekly basis in eleven patients. Providing 7 to 14 days without any drug exposure to facilitate proliferation of treated cells, an alternate week regimen or pulse therapy, was administered to twelve patients (see Tables V, VI and VI).
A series of ten patients with sickle cell anemia and β-thalassemia were treated with continuous therapy with arginine butyrate. In 3 out of 4, transfusion requirement was diminished. […] The mean peak in total HgB which was detectable in the ten patients over their baseline was 1.6 gm/dl.
Patients were next administered a pulse therapy regimen. Each session comprised eight to twelve hours of nightly infusions. […] Total increases in Hgb were sustained as high as 3.0 g/dl above baseline levels with a mean increase of 2.1 g/dl in 8 out of 12 patients (p<0.05, paired t-test, chi square).

[3] = test system: system A transport of amino acids; assay: Uptake of 3H-methyl-aminoisobutyric acid (MeAIB) into erythroblasts; type: cell-based
Method: Erythroblasts were tested for alterations in uptake of radio-labelled amino acid (^3H-methyl-aminoisobutyric acid; MeAIB) in the presence of AB (arginine butyrate), AMHCA (α-methylhydrocinnamic acid), PAA (phenoxyacetic acid), and IBT (isobutyramide), each at 2.0 mM.

[4] = pulse therapy, 4/6 severe thalassemia patients
[5] = weekly therapy, patient Hb SS, 24 weeks
[6] = weekly therapy, patient HbSS, 4 weeks
[7] = weekly therapy, patient frameshift 5, 5 weeks
[8] = weekly therapy, patient β-39,-39, 8 weeks
[9] = weekly therapy, patient βIVS I, 1-6, 40 weeks

In the case of arginine butyrate, the “Bfu-e colonies, % of control” value (Bfu-e) is reported as 16 % of control, the “percent total HbF” value ([1]; conventional treatment, after 150 days) is reported as “about 10%” and the “percent total HbF” value ([1]; conventional, 750 mg/kg infusion 10-16 hours per day, 5 days/week, from 3%) is reported as 15-18%. For the same substance, the “percent total fetal hemoglobin” value ([1]; pulse, 500 to 750 mg/kg for 4 days, 10 days withheld, about 5 months) was “over 20%”, the fetal hemoglobin levels ([2]; 4 days, infusions about 8 hours per day, followed by 7 days of no treatment) was “rise substantially” and the “patients with diminished transfusion requirement” value ([2]; continuous therapy) was 3 out of 4. The “mean peak in total HgB over baseline” value ([2]; continuous therapy, ten patients) was 1.6 gm/dl, the patients responding hematologically ([2]; intermittent pulse therapy) was 8/10 and the transfusion-dependency ([2]; pulse regimen, thalassemia major) was “eliminated previous transfusion-dependency; also recorded: Transfusion-dependency was eliminated”. The “hematologic responses above baseline levels” value ([2]; pulse therapy) was 2-5 gram/dl, the “patients with fetal globin genes reactivated to a hematologically compensating degree” value ([2]; pulse therapy for 4-18 months) was 8 out of 12 and the “total increases in Hgb above baseline, sustained” value ([2]; pulse therapy regimen) was no more than 3.0 g/dL. For the same substance, the “mean increase in Hgb above baseline” value ([2]; pulse therapy regimen, 8 out of 12 patients) was 2.1 g/dL, the “increase in total Hb levels” value [2, 4] was 2-3 grams/dl and the “total Hb level reached” value [2, 4] was greater than 9.0 gm/dl. The “Hb F reached” value ([2]; pulse therapy, patient) was 29%, the “Increase in Total Hgb” value ([2]; pulse therapy, patient HbE/?, 15 weeks) was 1.7 g/dL and the “Non-∀/∀* On (non-α: α globin chain synthesis ratios)” value ([2]; pulse therapy, patient HbE/?, 15 weeks, Base 0.17) was 0.25. The “F-cells On” value ([2]; pulse therapy, patient HbE/?, 15 weeks, Base 79) was 84, the “Percent HbF On” value ([2]; pulse therapy, patient HbSS, 7 weeks, Base 0.5) was 1.5% and the “F-retics On” value ([2]; pulse therapy, patient HbSS, 7 weeks, Base 8) was 9.3. The “F-cells On” value ([2]; pulse therapy, patient HbSS, 7 weeks, Base 11) was 8, the “Percent HbF On” value ([2]; pulse therapy, patient HbSS, 9 weeks, Base 0.5) was 1.0% and the “F-retics On” value ([2]; pulse therapy, patient HbSS, 9 weeks, Base 0.7) was 6.7. For the same substance, the “F-cells On” value ([2]; pulse therapy, patient HbSS, 9 weeks, Base 15) was 0.5, the “Increase Total Hgb” value ([2]; pulse therapy, patient HbSS, 11 weeks) was “+1.0 g/dl” and the “Percent HbF On” value ([2]; pulse therapy, patient HbSS, 11 weeks, Base 3) was 24%. For the same substance, the “F-retics On” value ([2]; pulse therapy, patient HbSS, 11 weeks, Base 18) was 25, the “F-cells On” value ([2]; pulse therapy, patient HbSS, 11 weeks, Base 28) was 58 and the “Increase Total Hgb” value ([2]; pulse therapy, patient HbSS, 15 weeks) was “+2.0 g/dl”. For the same substance, the “Percent HbF On” value ([2]; pulse therapy, patient HbSS, 15 weeks, Base 6.9) was 22%, the “F-retics On” value ([2]; pulse therapy, patient HbSS, 15 weeks, Base 12.6) was 24 and the “F-cells On” value ([2]; pulse therapy, patient HbSS, 15 weeks, Base 23) was 59. For the same substance, the “Increase Total Hgb” value ([2]; pulse therapy, patient HbSS, 18 weeks) was “+2.0 g/dl”, the “Percent HbF On” value ([2]; pulse therapy, patient HbSS, 18 weeks, Base 8) was 35% and the “F-retics On” value ([2]; pulse therapy, patient HbSS, 18 weeks, Base 35) was 46. The “F-cells On” value ([2]; pulse therapy, patient HbSS, 18 weeks, Base 50) was 65, the “Increase Total Hgb” value ([2]; pulse therapy, patient HbSS, 28 weeks) was “+1.0 g/dl” and the “Percent HbF On” value ([2]; pulse therapy, patient HbSS, 28 weeks, Base 6) was 29%. For the same substance, the “F-retics On” value ([2]; pulse therapy, patient HbSS, 28 weeks, Base 18) was 36, the “F-cells On” value ([2]; pulse therapy, patient HbSS, 28 weeks, Base 42) was 56 and the “Non-∀/∀* On (non-α: α globin chain synthesis ratios)” value ([2]; pulse therapy, patient frameshift-5, 24 weeks, Base 0.5) was 0.75. The “F-cells On” value ([2]; pulse therapy, patient frameshift-5, 24 weeks, Base 100) was 100, the “Increase in Total Hgb” value ([2]; pulse therapy, patient β-39-87, 68 weeks) was 3.6 g/dL and the “Non-∀/∀* On (non-α: α globin chain synthesis ratios)” value ([2]; pulse therapy, patient β-39-87, 68 weeks, Base 0.6) was 1.1. The “F-cells On” value ([2]; pulse therapy, patient β-39-87, 68 weeks, Base 29) was 100, the “Increase in Total Hgb” value ([2]; pulse therapy, patient β-39, 7 weeks) was 3.0 g/dL and the “Non-∀/∀* On (non-α: α globin chain synthesis ratios)” value ([2]; pulse therapy, patient β-39, 7 weeks, Base 0.4) was 0.9. The “F-cells On” value ([2]; pulse therapy, patient β-39, 7 weeks, Base 100) was 100, the “Increase in Total Hgb” value ([2]; pulse therapy, patient βIVS I-1, 4 weeks) was 2.1 g/dL and the “Non-∀/∀* On (non-α: α globin chain synthesis ratios)” value ([2]; pulse therapy, patient βIVS I-1, 4 weeks, Base 0.5) was 0.9. For the same substance, the “F-cells On” value ([2]; pulse therapy, patient βIVS I-1, 4 weeks, Base 100) was 100, the “Non-∀/∀* On (non-α: α globin chain synthesis ratios)” value ([2]; pulse therapy, patient βIVS II, 33 weeks, Base 0.5) was 0.7 and the “F-cells On” value ([2]; pulse therapy, patient βIVS II, 33 weeks, Base 10) was 16. The “patients with desired hematologic responses” value ([2]; pulse therapy, sickle cell and beta thalassemia patients) was 8 of 12, the adverse side effects ([2]; up to 17 months of home therapy and 350 weeks of patient treatment) was “No significant adverse side effects” and the “Hb F responses” value ([2]; weekly therapy) was 4-10%. The “patients with biochemical (Hb F) responses” value ([2]; weekly therapy) was 8/10, the “patients with biochemical increases in fetal globin expression” value ([2]; weekly therapy) was 8/11 and the “rises in total hemoglobin, mean” value ([2]; weekly therapy) was 1.6 gm/dl. For the same substance, the “increases in total Hb above baseline levels” value ([2]; weekly therapy, in 6/10) was 1-4 gram/dl, the Comments [2, 5] was “response declined” and the “Increase in Total Hgb” value [2, 5] was “+2.0 gm/dl”. For the same substance, the “F-retics On” value ([2]; weekly therapy, patient Hb SS, 24 weeks, Base 12.7) was 35.3, the Comments ([2]; weekly therapy, patient HbE/?, 9 weeks) was “transfusions cont” and the “F-retics On” value ([2]; weekly therapy, patient HbE/?, 9 weeks, Base 42) was 52.7. For the same substance, the Comments ([2]; weekly therapy, patient HbS, β-39, 6 weeks) was “transfusions cont”, the “F-retics On” value ([2]; weekly therapy, patient HbS, β-39, 6 weeks, Base 4) was 20 and the Comments [2, 6] was “response declined”. The “Increase in Total Hgb” value [2, 6] was “+1.0 gm/dl”, the “F-retics On” value ([2]; weekly therapy, patient HbSS, 4 weeks, Base 14) was 30.7 and the Comments [2, 7] was “response declined”. The “Increase in Total Hgb” value [2, 7] was “+1.0 gm/dl”, the “F-retics On” value ([2]; weekly therapy, patient frameshift 5, 5 weeks, Base 0.5) was 1 and the Comments ([2]; weekly therapy, patient β(-39-39), 8 weeks) was “AIHA, trans. cont”. For the same substance, the “F-retics On” value ([2]; weekly therapy, patient β(-39-39), 8 weeks, Base 60) was 77, the Comments [2, 8] was “plateaued” and the “Increase in Total Hgb” value [2, 8] was 1.5 gm/dl. The “F-retics On” value ([2]; weekly therapy, patient β-39,-39, 8 weeks, Base 76) was 68, the “Increase in Total Hgb” value ([2]; weekly therapy, patient β-39-87, 16 weeks) was “+2.3 gm/dl” and the “F-retics On” value ([2]; weekly therapy, patient β-39-87, 16 weeks, Base 64.7) was 67.3. For the same substance, the Comments [2, 9] was “response declined”, the “Increase in Total Hgb” value [2, 9] was “+4.3 gm/dl” and the “F-retics On” value ([2]; weekly therapy, patient βIVS I, 1-6, 40 weeks, Base 56) was 75. The “Increase in Total Hgb” value ([2]; weekly therapy, patient βIVS II-745, 7 weeks) was 3 gm/dl, the “F-retics On” value ([2]; weekly therapy, patient βIVS II-745, 7 weeks, Base 4) was 16 and the “rises in total hemoglobin, mean” value ([2]; weekly therapy, the 6 responsive patient (6/9 treated)) was 2.4 gm/dl. The “amino acid (MeAIB) uptake / transport” value ([3]; 2.0 mM, relative to untreated fetal liver erythroid cells) was “inhibited amino acid uptake” and the “inhibition of MeAIB uptake” value ([3]; after 60 and 120 minutes) was “most significant”.
